Experimental data: ChEMBL document CHEMBL1201862, “PubChem BioAssay data set” (2004)
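1) Cells in 96-well plates. 2) Compound, 48 h, 5 concentrations. 3) Linear interpolation between surrounding doses. 4) Unreached endpoint = highest concentration. At the GI50, growth is halved.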 Activity calls are given as the source filed them. No stated cut-off is given here; in the data, active = GI50 up to about 1.1 µM and inactive = higher.

Assays:
Experiment in all cases: inhibition of tumour cell growth, NCI panel, 48 h
LOX IMVI = test system: LOX IMVI
MOLT-4 = test system: MOLT-4
IGROV-1 = test system: IGROV-1
NCI-H226 = test system: NCI-H226
KM12 = test system: KM12
RXF 393 = test system: RXF 393
MDA-N = test system: MDA-N
PC-3 = test system: PC-3
SK-MEL-5 = test system: SK-MEL-5
SK-MEL-2 = test system: SK-MEL-2
SNB-19 = test system: SNB-19
EKVX = test system: EKVX
SK-OV-3 = test system: SK-OV-3
ACHN = test system: ACHN
M14 = test system: M14
MCF7 = test system: MCF7
T47D = test system: T47D
HOP-92 = test system: HOP-92
RPMI-8226 = test system: RPMI-8226
COLO 205 = test system: COLO 205
OVCAR-3 = test system: OVCAR-3
HT-29 = test system: HT-29
NCI-H23 = test system: NCI-H23
SN12C = test system: SN12C
SF-539 = test system: SF-539
K562 = test system: K562
BT-549 = test system: BT-549
MDA-MB-231 = test system: MDA-MB-231
U-251 = test system: U-251
MDA-MB-435 = test system: MDA-MB-435
UO-31 = test system: UO-31
HOP-62 = test system: HOP-62
A549 = test system: A549
HCC 2998 = test system: HCC 2998
OVCAR-4 = test system: OVCAR-4
CCRF-CEM = test system: CCRF-CEM
SK-MEL-28 = test system: SK-MEL-28
SF-268 = test system: SF-268
CAKI-1 = test system: CAKI-1
NCI/ADR-RES = test system: NCI/ADR-RES
HCT-116 = test system: HCT-116
UACC-257 = test system: UACC-257
OVCAR-5 = test system: OVCAR-5
OVCAR-8 = test system: OVCAR-8
TK-10 = test system: TK-10
SW-620 = test system: SW-620
SF-295 = test system: SF-295
NCI-H460 = test system: NCI-H460
DU-145 = test system: DU-145
UACC-62 = test system: UACC-62
SNB-75 = test system: SNB-75

For `Cc1ccc(S(=O)(=O)N2c3ccccc3[C@H]3CCc4c([nH]c5ccccc45)[C@H]32)cc1`, the GI50 (LOX IMVI) was > 100 µM (inactive), the GI50 (MOLT-4) was 66.1 µM (inactive) and the GI50 (IGROV-1) was 0.789 µM (active). For the same compound, the GI50 (NCI-H226) was 15.3 µM (inactive), the GI50 (KM12) was 17.9 µM (inactive) and the GI50 (RXF 393) was > 100 µM (inactive). The GI50 (MDA-N) was 30 µM (inactive), the GI50 (PC-3) was > 100 µM (inactive) and the GI50 (SK-MEL-5) was 32 µM (inactive). For the same compound, the GI50 (SK-MEL-2) was > 100 µM (inactive), the GI50 (SNB-19) was > 100 µM (inactive) and the GI50 (EKVX) was > 100 µM (inactive). For the same compound, the GI50 (SK-OV-3) was > 100 µM (inactive), the GI50 (ACHN) was > 100 µM (inactive) and the GI50 (M14) was > 100 µM (inactive). The GI50 (MCF7) was > 100 µM (inactive), the GI50 (T47D) was > 100 µM (inactive) and the GI50 (HOP-92) was > 100 µM (inactive). For the same compound, the GI50 (RPMI-8226) was 29.2 µM (inactive), the GI50 (COLO 205) was > 100 µM (inactive) and the GI50 (OVCAR-3) was > 100 µM (inactive). For the same compound, the GI50 (HT-29) was > 100 µM (inactive), the GI50 (NCI-H23) was > 100 µM (inactive) and the GI50 (SN12C) was > 100 µM (inactive). For the same compound, the GI50 (SF-539) was 27.7 µM (inactive), the GI50 (K562) was 23.4 µM (inactive) and the GI50 (BT-549) was > 100 µM (inactive). For the same compound, the GI50 (MDA-MB-231) was 0.65 µM (active), the GI50 (U-251) was > 100 µM (inactive) and the GI50 (MDA-MB-435) was 48.3 µM (inactive). For the same compound, the GI50 (UO-31) was > 100 µM (inactive), the GI50 (HOP-62) was 84.9 µM (inactive) and the GI50 (A549) was > 100 µM (inactive). For the same compound, the GI50 (HCC 2998) was > 100 µM (inactive), the GI50 (OVCAR-4) was 0.942 µM (active) and the GI50 (CCRF-CEM) was 70 µM (inactive). The GI50 (SK-MEL-28) was > 100 µM (inactive), the GI50 (SF-268) was > 100 µM (inactive) and the GI50 (CAKI-1) was 4.33 µM (inactive). The GI50 (NCI/ADR-RES) was > 100 µM (inactive), the GI50 (HCT-116) was > 100 µM (inactive) and the GI50 (UACC-257) was > 100 µM (inactive). For the same compound, the GI50 (OVCAR-5) was > 100 µM (inactive), the GI50 (OVCAR-8) was > 100 µM (inactive) and the GI50 (TK-10) was > 100 µM (inactive). The GI50 (SW-620) was > 100 µM (inactive), the GI50 (SF-295) was > 100 µM (inactive) and the GI50 (NCI-H460) was > 100 µM (inactive). The GI50 (DU-145) was > 100 µM (inactive), the GI50 (UACC-62) was > 100 µM (inactive) and the GI50 (SNB-75) was > 100 µM (inactive).
